Patent US7279548B2, “Identification and isolation of novel polypeptides having WW domains and methods of using same” (Cytogen Corporation, priority 1996, dated 2007)
No end group written: not given here. *: point of attachment. Biotin = O=C1N[C@H]2[C@H](CS[C@H]2CCCCC(=O)*)N1

Tested on: WW domains of WWP4 expressed as GST fusion proteins
Assay: ELISA based cross affinity mapping, WW domains of WWP4
Format: binding, human
Conditions: biotinylated peptide-streptavidin/alkaline phosphatase complex; GST fusion proteins; ELISA
Description: The 16 day mouse embryo cDNA expression library was diluted 1:1000 in SM solution (100 mM NaCl, 8 mM MgSOv4, 50 mM Tris HCl pH 7.5, 0.01% gelatin). To a sterile test tube, 2 μl of diluted mouse embryo library, 100 μl of 10 mM CaCl2, 100 μl of 10 mM MgCl2 and 100 μl of BL21(DE3)pLysE bacterial cells (grown overnight) were added and incubated for 30 minutes at 37° C. The contents of the tube were mixed with 3 ml of 0.6% top agarose, containing […] chloramphenicol, and poured onto a 2xYT plate (90 mm diameter). For a large primary screen, 10–20 plates were prepared with 3×10^4 pfu per plate. After 6 hours incubation at 37° C., a nitrocellulose filter soaked in 10 mM isopropyl-β-D-thiogalactopyranoside (IPTG) was overlaid on each plate and incubated 3–6 hours at 37° C. Before the filters were removed from the plates, they were marked asymmetrically with India ink in a 18 gauge syringe needle. The plates were stored at 4° C. until ready for the secondary screen. The filters were washed with PBS (137 mM NaCl, 2.7 mM KCl, 4.3 mM Na2HPO4, 1.4 mM KH2PO4)-0.05% Triton X-100 three times at room temperature, 15 minutes each wash, and then placed in a plastic bag containing non-specific blocking solution (PBS-2% BSA) for one hour. In the meantime, 1 ml of 1 mM biotinylated peptide in PBS-0.1% Tween 20 was added to 20 ml of 1 mg/ml streptavidin-alkaline phosphatase (SA-AP) in PBS-0.1% Tween 20 and incubated at 4° C. for 30 minutes. […] Excess biotin-binding sites would then be blocked by addition of 500 pmol biotin. […] Ten μl of 0.1 mM biotin would then be added, and the solution incubated for an additional 15 min.
To determine the ligand preferences of the novel WW omain-containing clones described in Sections 6.1 and 6.1.1, as well as addressing the issue of whether peptides containing PPPPY (SEQ ID NO:3)-like motifs derived from a variety of proteins could also serve as recognition units and bind to these clones, a cross affinity mapping experiment was performed (FIGS. 15A–D). The peptides shown in FIGS. 15A–D were synthesized, biotinylated, complexed with streptavidin-alkaline phosphatase, and tested in an ELISA based assay for their ability to bind to the twelve individual novel WW domains of WWP1, WWP2, WWP3 and WWP4 which were expressed as GST fusion proteins. The ELISA based cross-affinity experiments were performed essentially as described by Sparks et al. (1996, Proc. Natl. Acad. Sci. 93:1540–1544) with the following modifications. Briefly, microtiter wells were coated with 1–5 μg of fusion protein in 100 mM NaHCO3, blocked with SuperBlock TBS (Pierce) and washed four times with PBS, 0.05% Tween 20. Specific peptide-streptavidin/alkaline phosphatase complexes were added as above and unbound complexes washed five times with PBS, 0.05% Tween 20. Following addition of PNP substrate (p-nitrophenyl phosphate, Kirkegard & Perry Labs), peptide binding was quantitated after 30 min. at O.D. 405 nm. Relative binding measurements from three independent determinations were assigned to a scale as follows: O.D. units 0–0.5=(−), 0.5–1.0=(+), 1.0–2.0=(++), 2.0–3.0=(+++), >3.0=(++++). Peptide binding to human Fyn and Lyn SH3 and SH2 domains was assessed by a filter binding assay (see Section 6.1 and Sparks et al., 1996, Proc. Natl. Acad. Sci 93:1540–1544). Peptide sequences used in cross-affinity experiments correspond to segments of the following genes: RasGap (Database accession # P20936), AP-2 (P05549), p53BP-2 (U09582), IL-6Rα (P22272), voltage-gated chloride channel CLCN5 (X91906), IL-2Rγ (D111086), RSV (D10652), HTLV-1 (D13784), β-dystroglycan (L19711), Formin (X53599), amiloride-sensitive epithelial Na^+ channel ENaCα (P37089), ENaCβ (X87159) and ENaCγ (X87160), muscarinic acetylcholine receptor M4 AChR (P08173), and c-Abl (P00522). Src and Crk SH3 binding peptide sequences were derived from a phage display random peptide library screen (Section 6.1 and Sparks et al., 1996, Proc. Natl. Acad. Sci. 93:1540–1544).

Substance	binding to WW domains of WWP4
Biotin-SGSGYVQPPPPPYPGPM [WBP-2A]	specifically bind
Biotin-SGSGPGTPPPPYTVGPGY [WBP-1]	specifically bind
Biotin-SGSGPGTPYPPPPEFY [WBP-2B]	none of the WW domains of these proteins specifically bind
